From patent US20020013324A1, “N-substituted imide derivatives with serotonergic activity” (American Home Products Corporation, priority 1999, published 2002)
Structures can show the parent of a compound that is named as a salt.

What was measured:
human 5-HT1A receptor = target: T1, human 5-HT1A receptor (Homo sapiens, UniProt P08908); experiment: Displacement of [3H]8-OH-DPAT from the 5-HT1A receptor in transfected CHO cells; details: [3H]-8-OH-DPAT 1.5 nM; CHO cells with human 5-HT1A receptor; nonspecific binding with 10 μM 5-HT; room temperature; read-out: 5-HT1A Affinity (IC50)
T1 construct: expressed in transfected cells; host or cells: CHO cells (stably transfected)
T1 sequence (P08908 1-422): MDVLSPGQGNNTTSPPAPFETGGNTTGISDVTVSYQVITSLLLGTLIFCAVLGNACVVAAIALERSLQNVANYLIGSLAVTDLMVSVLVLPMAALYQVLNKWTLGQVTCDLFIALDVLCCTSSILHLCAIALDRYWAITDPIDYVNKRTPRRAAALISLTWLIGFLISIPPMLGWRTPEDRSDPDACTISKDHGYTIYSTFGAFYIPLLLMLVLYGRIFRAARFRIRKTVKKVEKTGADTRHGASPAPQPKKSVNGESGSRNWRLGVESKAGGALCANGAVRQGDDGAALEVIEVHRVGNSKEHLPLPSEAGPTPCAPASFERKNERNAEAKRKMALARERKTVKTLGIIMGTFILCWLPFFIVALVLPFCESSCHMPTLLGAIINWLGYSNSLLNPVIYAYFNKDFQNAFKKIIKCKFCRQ
Text: Affinity for the serotonin 5-HT1A receptor was established by assaying the test compound's ability to displace [3H]8-OHDPAT (dipropylaminotetralin) from its binding site on the receptor complex in CHO cells stably transfected with the human 5-HT1A receptor following a variation of a procedure of J. Zgombick et al., Naunyn-Schmiedeberg's Arch. Pharmacol., 354, 226-236 (1996), as described by J. Dunlop, Y. Zhang, D. L. Smith and L. E. Schechter, Journal of Pharmacological and Toxicological Methods 40, 47-55 (1998). The variation includes: the use of cells containing clonal human 5-HT1A receptor in place of 5-HT1D receptor; the use of [3H]-8-OH-DPAT (1.5 nM) as radioligand in place of [3H]-LSD; nonspecific binding determined with 10 μM 5-HT; and the test procedure was run at room temperature rather than 37° C.

Compound	IC50 (human 5-HT1A receptor) [nM]	melting point [°C]
COc1ccccc1N1CCN(CCN(C(=O)C2CCCCC2)C(=O)C2CCCCC2)CC1.Cl.Cl [Example 6, Cyclohexanecarboxylic acid cyclohexanecarbonyl-{2-[4-(2-methoxyphenyl)-piperazin-1-yl]-ethyl}-amide dihydrochloride]	3.1	159 to 160
O=C(c1ccccc1)N(CCN1CCN(c2cccc3c2OCCO3)CC1)C(=O)C1CCCCC1 [Example 14, Cyclohexanecarboxylic acid benzoyl-{2-[4-(2,3-dihydro-benzo[1,4]dioxin-5-yl)-1-piperazin-1-ylethyl]-amide hydrochloride sesquihydrate]	5.13	
COc1ccccc1N1CCN(C[C@@H](C)N(C(=O)c2ccccc2)C(=O)c2ccccc2)CC1 (as salt: fumarate) (hydrate or solvate) [Example 16, (R)-N-Benzoyl-N-{1-methyl-2-[4-(2-methoxyphenyl)-piperazin-1-yl]-ethyl}-benzamide semifumarate-hemihydrate]		115 to 120
O=C(c1ccccc1)N(CCN1CCN(c2cccc3c2OCCO3)CC1)C(=O)C1CCCCC1 (as salt: hydrochloride) (hydrate or solvate) [Example 14, Cyclohexanecarboxylic acid benzoyl-{2-[4-(2,3-dihydro-benzo[1,4]dioxin-5-yl)-1-piperazin-1-ylethyl]-amide hydrochloride sesquihydrate]		169 to 171
COc1ccc(C[C@H](CN2CCN(c3ccccc3OC)CC2)N(C(=O)C2CCCCC2)C(=O)C2CCCCC2)cc1 (as salt: hydrochloride) [Example 11, (R)-Cyclohexanecarboxylic acid cyclohexanecarbonyl-{1-(4-methoxybenzyl)-2-[4-(2-methoxyphenyl)-piperazin-1-yl]-etlyl}-amide hydrochloride]		106 to 108
COc1ccccc1N1CCN(CCN(C(=O)c2ccccc2)C(=O)c2ccccc2)CC1 [Example 15, N-Benzoyl-N-{-2-[4-(2-methoxyphenyl)-piperazin-1-yl]-ethyl}-benzamide hydrochloride hemihydrate]	23.4	
COc1ccccc1N1CCN(C[C@@H](Cc2ccccc2)N(C(=O)C2CCCCC2)C(=O)C2CCCCC2)CC1 (as salt: fumarate) [Example 10, (R)-Cyclohexanecarboxylic acid cyclohexanecarbonyl-{1-benzyl)-2-[4-(2-methoxy-phenyl)-piperazin-1yl]-ethyl}-amide fumarate]		146 to 147
COc1ccc(C[C@H](CN2CCN(c3ccccc3OC)CC2)N(C(=O)C2CCCCC2)C(=O)C2CCCCC2)cc1 [Example 11, (R)-Cyclohexanecarboxylic acid cyclohexanecarbonyl-{1-(4-methoxybenzyl)-2-[4-(2-methoxyphenyl)-piperazin-1-yl]-etlyl}-amide hydrochloride]	0.38	
O=C(C1CCCCC1)N(CCN1CCN(c2cccc3c2OCCO3)CC1)C(=O)C1CCCCC1 [Example 8, Cyclohexanecarboxylic acid cyclohexanecarbonyl-{2-[4-(2,3-dihydro-benzo[1,4]-dioxin)-5-yl}-piperazin-1-yl]-ethyl}-amide sesquihydrochloride monohydrate]	4.77	
O=C(C1CCCCC1)N(CCN1CCN(c2cccc3c2OCCO3)CC1)C(=O)C1CCCCC1 (as salt: hydrochloride) (hydrate or solvate) [Example 8, Cyclohexanecarboxylic acid cyclohexanecarbonyl-{2-[4-(2,3-dihydro-benzo[1,4]-dioxin)-5-yl}-piperazin-1-yl]-ethyl}-amide sesquihydrochloride monohydrate]		148 to 149
COc1ccccc1N1CCN(C[C@@H](C)N(C(=O)c2ccccc2)C(=O)c2ccccc2)CC1 [Example 16, (R)-N-Benzoyl-N-{1-methyl-2-[4-(2-methoxyphenyl)-piperazin-1-yl]-ethyl}-benzamide semifumarate-hemihydrate]	79.6	
COc1ccccc1N1CCN(C[C@@H](Cc2cn(C)c3ccccc23)N(C(=O)C2CCCCC2)C(=O)C2CCCCC2)CC1.Cl.O (hydrate or solvate) [Example 12, (R)-Cyclohexanecarboxylic acid cyclohexanecarbonyl-{1-[4-(2-methoxyphenyl)-piperazin-1-ylmethyl]-2-(1-methyl-1H-indol-3-yl)ethyl}-amide hydrochloride monohydrate]		136 to 138
COc1ccccc1N1CCN(C[C@@H](Cc2cn(C)c3ccccc23)N(C(=O)C2CCCCC2)C(=O)C2CCCCC2)CC1 [Example 12, (R)-Cyclohexanecarboxylic acid cyclohexanecarbonyl-{1-[4-(2-methoxyphenyl)-piperazin-1-ylmethyl]-2-(1-methyl-1H-indol-3-yl)ethyl}-amide hydrochloride monohydrate]	0.78	
(R)-Cyclohexanecarboxylic acid cyclohexanecarbonyl-{1-methyl-2-[4-(2-methoxyphenyl)-piperazin-2-yl]-ethyl}-amide fumarate [Example 9]	2.69	
COc1ccccc1N1CCN(C[C@@H](Cc2ccccc2)N(C(=O)C2CCCCC2)C(=O)C2CCCCC2)CC1 [Example 10, (R)-Cyclohexanecarboxylic acid cyclohexanecarbonyl-{1-benzyl)-2-[4-(2-methoxy-phenyl)-piperazin-1yl]-ethyl}-amide fumarate]	61	
Cl.Cl.O=C(C1CCCCC1)N(CCN1CCN(c2cccc3[nH]ccc23)CC1)C(=O)C1CCCCC1 [Example 7, Cyclohexanecarboxylic acid cyclohexanecarbonyl-{2-[4-(1H-indol-4-yl)-piperazin-1-yl]-ethyl}-amide dihydrochloride]	4.55	144 to 146
